In patent US6261760A, “Regulation of the cell cycle by sterols” (priority 1999, dated 2001):
Entries after “also recorded” stand apart in the source; their conditions may differ. Like-named read-outs stand apart in the source and are kept apart here. *1 amine or outer side, *2 acyl side, *3 side chain or, on linkers, in order; H or OH if unused. Where a SMILES comes first, the peptide text is derived from it. Bridges are numbered along the chain shown (N, C = ends). Roman numbers before positions name the chains, in order. [ ]: non-standard residue; d: D form. Actinocin(9to1) = Cc1c2oc3c(C)ccc(C(=O)[*:1])c3nc-2c(C(=O)[*:2])c(N)c1=O; NMeV = CN[C@H](C(=O)O)C(C)C; Nle = CCCC[C@H](N)C(=O)O; Sar = CNCC(=O)O

Experiments:
caveolin mRNA = assay: Caveolin mRNA levels (Northern blot)
[1] = tested on: LDL FC uptake by fibroblast monolayers; conditions: for effect on LDL FC uptake: in words
fibroblasts = conditions: cited from earlier work
[2] = tested on: LDL FC uptake by fibroblast monolayers; assay: Effects of metabolic inhibitors on uptake of 3H-cholesterol from LDL (Example 1); conditions: for effect on LDL FC uptake: in words
[3] = tested on: LDL-receptor deficient cells (GM 2000 line); assay: FC transfer from LDL to LDL receptor-deficient cells (GM 2000); assay type: cell-based
[4] = tested on: LDL FC uptake by fibroblast monolayers; assay: Transfer of LDL-derived 3H-FC into fibroblast monolayers with metabolic inhibitors (Example 2); assay type: cell-based, human; set-up: Emax: dose or concentration left out as unconfirmed; conditions: for effect on uptake of 3H-FC from LDL: brefeldin A, vinblastine, taxol, nocodazole, NEM 2 mM; for inhibition at higher concentration: 100 mM (monensin: up to 100 mM)
[5] = tested on: normal human skin fibroblasts; assay: Cell synchronization by aphidicolin (flow cytometry); assay type: cell-based
Method: Normal human skin fibroblasts were cultured in 10% fetal calf serum in Dulbecco's modified Eagles medium (DMEM). […] After 3 days, dishes were incubated with aphidicolin (4 μg/ml)(CalBiochem, San Diego, Calif.) to inhibit DNA polymerase, leading to cell arrest immediately before S-phase (Tobey et al. (1988) Expt. Cell Res. […]). After 24 h incubation with aphidicolin, the inhibitor was removed for a further 12 h, then restored for a `double block` at 8 μg/ml for a further 24 h (Sourlingas et al. (1996) Anal. Biochem. 234:104-107). After final removal from inhibitor into 10% serum-DME medium, the cells during incubation over the next 32 h at 37° C. […]
After 3 days, dishes were incubated with aphidicolin (4 μg/ml)(CalBiochem, San Diego, Calif.) to inhibit DNA polymerase, leading to cell arrest immediately prior to DNA synthesis (S-phase) (Tobey et al. (1988) Exptl. Cell Res. 179: 400-416, Sourlingas and Sekeri-Pataryas (1996) Anal. Biochem. 234: 104-107.). […] Cell synchronization was assessed by flow cytometry using the cell permeable stain Hoechst 33342 (Molecular Probes, Eugene, Oreg.)(Haas-Kogan et al. (1995) EMBO J. 14: 461-472.). […] Samples were analysed on a FACStar Plus (Becton Dickinson, San Jose, Calif.). Data was analysed using Lysis II software (Becton Dickinson). […]

[6] = tested on: intracellular FC transport to the cell surface in fibroblast monolayers; assay: Transfer of intracellular 3H-FC to the cell surface (cholesterol oxidase); assay type: cell-based, human; conditions: in words
Method: This assay utilized the finding (see Example 1) that only FC in the caveolar fraction of the plasma membrane fraction was modified by cholesterol oxidase in unfixed fibroblast monolayers.
The rate at which intracellular LDL-derived ^3 H-FC became accessible at the cell surface was measured as follows. Cell monolayers were labeled with ^3 H-FC LDL under the conditions shown for each experiment. Unbound and adsorbed LDL were removed as described above. In some experiments metabolic inhibitors of different transport steps were then added for 30 min at 15° C. […] Cholesterol oxidase (Boehringer-Manheim, Indianapolis, Ind., USA) was added in PBS to a final concentration of 1 U ml^-1. Incubation was for 4 h at 0° C. The cells were washed with ice-cold PBS, and extracted with 0.1 N NAOH. Cell total lipid was extracted with chloroform-methanol (1:1 v/v). […] .
Fibroblast monolayers were prelabeled with FC-labeled LDL for 2 min at 31° C. Medium and surface-bound labeled LDL were removed as described above. The cells were incubated with inhibitors of intracellular transport for 30 min at 15° C. Movement of FC label to the cell surface remained negligible (FIG. 11). The cells were brought to 31° C. for 15 min, and then cooled on wet ice. ^3 H-FC transfer to the cell surface (in the presence and absence of inhibitor) was assayed with cholesterol oxidase as described above.

fibroblast monolayers = assay: FC efflux from fibroblast monolayers (3H-FC label); assay type: cell-based, human; conditions: in words
Method: Fibroblast monolayers were equilibrated with ^3 H-FC-labeled native plasma or with isolated ^3 H-labeled LDL, as specified for each experiment. Following incubation, the dishes were washed with albumin-complete PBS and then (×4) with complete PBS. They were then incubated for 3 min with unlabeled plasma or lipoprotein fractions and the rate of appearance of radioactivity in the medium determined. Samples of medium ([…]) were immediately chilled in ice water and centrifuged (10 min, 2000×g) at 0-2° C. ^3 H-cholesterol radioactivity in the supernatant was either assayed directly, or fractionated by agarose gel electrophoresis. FC efflux was linear as previously reported (Kawano et al., Biochemistry, 32: 5025-5028 (1993)).
For electrophoresis, […] portions of labeled medium were added to strips of 0.75% w/v agarose in 0.025 M barbital buffer (pH 8.6) and separated as previously described (Fielding et al., Biochemistry, 30: 8551-8557 (1991)). 2.5 mm gel fractions were then collected, and radioactivity measured. The location of major lipoprotein classes was determined from strips run simultaneously with whole native plasma equilibrated (60 min, 37° C.) With ^3 HFC.
Rates of FC influx and efflux between medium and fibroblast monolayers preincubated for 24 h with 7-80% native human plasma in DMEM were determined. Cells equilibrated in 80% compared to 7% v/v plasma contained 35-40% more total cholesterol but only 10-15% more FC. In 50% v/v plasma, cholesteryl ester levels were lower than in 80% plasma but FC levels were almost the same. Rates of transfer of FC between the cells and their extracellular medium were determined for each plasma dilution. […] was measured as the rate of transfer of ^3 H-FC radioactivity from labeled native plasma to unlabeled cells. […] was determined as the rate of transfer of radioactivity from uniformly labeled cells to unlabeled native plasma medium.

CCCC[C@@H](C=O)NC(=O)[C@H](CC(C)C)NC(=O)[C@H](CC(C)C)NC(C)=O [ALLN] (Ac-Leu-Leu-[Nle]-aldehyde)
effect on caveolin mRNA levels / caveolin gene expression (caveolin mRNA; 25 μM ALLN, 7% or 80% v/v plasma): superinhibited caveolin mRNA levels regardless of LDL-FC; also recorded: superinhibited the expression of the caveolin gene; also recorded: strongly inhibited caveolin mRNA levels even below the level expressed in cells equilibrated in 7% v/v plasma; also recorded: completely prevented the activation of caveolin mRNA levels observed in 80% v/v plasma

CC(C)Cn1c(=O)n(C)c(=O)c2[nH]cnc21 [IBMX, isobutyl methylxanthine]
activity ([1]; fibroblast monolayers, 60 min): 111% | effect on LDL FC uptake [1]: no effect | effect on transfer of newly-synthesized cholesterol to plasma membrane (fibroblasts): stimulated

C=C[C@@]1(C)CC(=O)[C@]2(O)[C@@]3(C)[C@@H](O)CCC(C)(C)[C@@H]3[C@H](O)[C@H](OC(C)=O)[C@@]2(C)O1 [Forskolin]
effect on LDL FC uptake [1]: no effect | effect on transfer of newly-synthesized cholesterol to plasma membrane (fibroblasts): stimulated

heparin
inhibition of LDL FC influx ([2]; normal fibroblasts, 0.1 mg/ml heparin, LDL 150 Fg FC ml^-1, 10 min): Approximately 80% | inhibition of LDL FC influx ([3]; GM 2000 cells, 0.1 mg/ml heparin, LDL 150 Fg FC ml^-1, 10 min): Approximately 80%

[NH4+].[O]=[V](=[O])[O-] [NH4 -vanadate]
effect on LDL FC uptake [2]: without effect

[N-]=[N+]=[N-].[Na+] [Na-azide]
effect on LDL FC uptake [2]: without effect

COC1=CC(C)=CC(C)C(O)C(C)CC(C)=CC=CC(OC)C(C(C)C(O)C(C)C2(O)CC(O)C(C)C(C(C)C)O2)OC1=O (single isomer, unassigned) [Bafilomycin A1]
Emax ([4]; Homo sapiens, Fibroblast, read-out: maximal effect on LDL-FC uptake): 30%

Cc1c2oc3c(C)ccc(C(=O)N[C@@H]4C(=O)N[C@H](C(C)C)C(=O)N5CCC[C@H]5C(=O)N(C)CC(=O)N(C)[C@@H](C(C)C)C(=O)O[C@@H]4C)c3nc-2c(C(=O)N[C@@H]2C(=O)N[C@H](C(C)C)C(=O)N3CCC[C@H]3C(=O)N(C)CC(=O)N(C)[C@@H](C(C)C)C(=O)O[C@@H]2C)c(N)c1=O [actinomycin, actinomycin D] (I: T[dV]P[Sar][NMeV] / II: T[dV]P[Sar][NMeV]; ester I:1-I:C, II:1-II:C; linker I:N-II:N via Actinocin(9to1))
t1/2 of decrease in caveolin mRNA levels (caveolin mRNA; actinomycin 2.5 μg ml^-1, activated and baseline cells, n=4): 8.0 ± 1 h | caveolin mRNA level relative to total RNA (caveolin mRNA; baseline cells, 8 h with actinomycin, 37° C.): 0.52

CC(=O)O[C@H]1C(=O)[C@@]2(C)[C@H]([C@H](OC(=O)c3ccccc3)[C@]3(O)C[C@H](OC(=O)[C@H](O)[C@@H](NC(=O)c4ccccc4)c4ccccc4)C(C)=C1C3(C)C)[C@]1(OC(C)=O)CO[C@@H]1C[C@@H]2O [taxol]
effect on uptake of 3H-FC from LDL [4]: without effect

C[C@@]1(CO)[C@H](O)CC[C@@]2(C)[C@H]1CC[C@H]1C[C@@H]3C[C@@]12CC[C@]3(O)CO [aphidicolin]
cells synchronized to enter S-phase ([5]; Example 4, following removal of inhibitor): ~ 85% | cells in synchrony at the beginning of S phase ([5]; Example 5, 4 then 8 μg/ml aphidicolin): 83.9±3.1%

CC[C@@]1([C@@H]2O[C@@H]([C@H]3O[C@@](O)(CO)[C@H](C)C[C@@H]3C)C[C@@H]2C)CC[C@H]([C@]2(C)CC[C@]3(C[C@H](O)[C@@H](C)[C@@H]([C@@H](C)[C@@H](OC)[C@H](C)C(=O)O)O3)O2)O1 [Monensin]
inhibition at higher concentration [4]: no increase in inhibition | effect on uptake of 3H-FC from LDL [4]: effective in reducing the selective uptake of FC from LDL | effect on selective uptake of FC from LDL in GM2000 cells ([3]; in words): Comparable results

CCN(CC)CCCC(C)Nc1ccnc2cc(Cl)ccc12 (stereo not drawn) [Chloroquine]
effect on LDL FC uptake [2]: no effect

COC(=O)Nc1nc2ccc(C(=O)c3cccs3)cc2[nH]1 [Nocodazole]
effect on transport of intracellular 3H-FC to the cell surface [6]: reduced | effect on uptake of 3H-FC from LDL [4]: without effect

CC[C@]1(O)C[C@@H]2CN(CCc3c([nH]c4ccccc34)[C@@](C(=O)OC)(c3cc4c(cc3OC)N(C)[C@H]3[C@@](O)(C(=O)OC)[C@H](OC(C)=O)[C@]5(CC)C=CCN6CC[C@]43[C@@H]65)C2)C1 [Vinblastine]
effect on transport of intracellular 3H-FC to the cell surface [6]: unaffected | effect on uptake of 3H-FC from LDL [4]: without effect

C[C@H]1CCC/C=C/[C@@H]2C[C@H](O)C[C@H]2[C@H](O)/C=C/C(=O)O1 [Brefeldin A]
effect on transport of intracellular 3H-FC to the cell surface [6]: unaffected | effect on uptake of 3H-FC from LDL [4]: without effect

O=[N+]([O-])[O-].[K+] [KNO3]
initial rate of efflux of FC from prelabeled cells to plasma (fibroblast monolayers): increased several-fold | inhibition of the uptake of free cholesterol from LDLs ([2]; FIG. 8): > 80% | time course of inhibition of LDL FC uptake ([2]; NEM: first 10-15 min, KNO3: 50 mM, data not shown): comparable time course | effect on transport of intracellular 3H-FC to the cell surface [6]: inhibited the return of FC to the cell surface, but less effectively than did nocodazole

C=C1C(C)C2C(Cc3ccccc3)NC(=O)C23C(OC(C)=O)/C=C/C(C)(O)C(=O)C(C)CC=CC3C1O (stereo not drawn) [Cytochalasin D]
effect on transport of intracellular 3H-FC to the cell surface [6]: no effect | inhibition at higher concentration ([4]; listed as Cytochalasin): No greater inhibition | inhibition at higher concentration ([4]; listed as cytochalasin D): no increase in inhibition
